Laboratory results as given in publication PMC3944389, “Differential Neuroprotective Effects of 5′-Deoxy-5′-Methylthioadenosine” (PLoS ONE, 2014).

Experiments:
[1] = system: Wistar rats, global brain ischemia; assay: Transient forebrain (global) ischemia (4VO), Fluoro-Jade C staining of CA1; format: in vivo, rat; details: 30 mg/kg i.p. from 30 min after onset of ischemia, 7 days reperfusion; untreated 180±10
Description: (§1) Male Wistar rats (270-300 g; Harlan) were subjected to transient focal ischemia for 90 min by producing right middle cerebral artery occlusion (MCAO) as described previously, followed by reperfusion for 3 days and MTA treatment (30 mg/kg, intraperitoneally –i.p.- twice daily) starting 30 min after the onset of ischemia (n = 5 in each experimental group). Cerebral blood flow was monitored transcranially with a laser Doppler flowmeter (Perimed) and the infarct volume was assessed by 2,3,5-triphenyltetrazolium chloride (TTC) staining. Transient forebrain ischemia was induced as described elsewhere, by occluding the vertebral and common carotid arteries (4VO) for 10 min, followed by reperfusion for 7 days and MTA treatment (as above) starting 30 min after the onset of ischemia (n = 5 in vehicle group; n = 6 in the […]). The effectiveness of the treatment was assessed by using fluoro-Jade C staining to measure the levels of degenerated neurons in the CA1 region of the hippocampal formation.
Fluoro-Jade C (Chemicon, Millipore) was used to visualize dying neurons in 10 µm frozen coronal sections pretreated for 15 min with 0.06% KMnO4. […] Cells were counted in the right and left hemispheres of each stained section, examining four sections from each experiment.

[2] = system: rat mixed cultures of neurons and astrocytes; assay: Oxygen-glucose deprivation (OGD) with iodoacetate, LDH release; format: cell-based
Description: Finally, to prepare neuron-astrocyte co-cultures, neurons were resuspended in B27 Neurobasal medium plus 10% of foetal bovine serum (FBS) and then seeded onto a monolayer of astrocytes in 24-well plates at a density of 1–2×10^5 cells per well, the astrocytes having been prepared beforehand, as described elsewhere. One day later, the medium was replaced with B27-Neurobasal plus 10% FBS medium, and the cells were maintained at 37°C in 5% CO2. The cultures were used 8–9 days after plating. Neurons and astrocytes were identified with antibodies against microtubule-associated protein-2 and GFAP, respectively.
Ischemic damage was induced by incubating cell cultures for 1 h in a hyperbaric chamber in a nitrogen-saturated buffer containing: 130 mM NaCl, 5.4 mM KCl, 0.1323 mM CaCl2, 0.26 mM NaHCO3, 0.8 mM MgCl2, 1.18 mM NaH2PO4, 10 mM sucrose (OGD plus sucrose) and iodoacetate (IAA, 20 or 50 µM). IAA is a glycolytic blocker typically used in OGD experiments to simulate ischemic conditions. After the insult, the cells were incubated under normoxic conditions for an additional 24 h in the presence of glucose but in the absence of IAA. Distinct reagents were added during ischemia to evaluate their neuroprotective activity by assessing cell viability and cell death in the cultures.
The cell status was assessed by measuring the release of lactate dehydrogenase (LDH) from dead cells. LDH was measured spectrophotometrically at 490 nm on a 96-well plate reader using the Cytotox 96 Kit according to the manufacturer's instructions (Promega). The LDH release was defined by the ratio of LDH released to the total LDH present in the cell at the beginning of the treatment.

[3] = system: co-culture of bovine-brain endothelial cells (BBECs) and newborn rat astrocytes; assay: In vitro cell model of transport across the BBB; format: in vitro ADME
Description: A in vitro cell model of BBB permeability was established using a co-culture of bovine-brain endothelial cells (BBECs) and newborn rat astrocytes. The cells were first cultured in 24-well (Transwell^R) permeable supports with a surface area of 0.33 cm^2 and a pore size of 0.4 µm (Corning), the upper surface of which was coated with collagen type IV and fibronectin. The inserts were then placed upside down in a large petri dish, and 40 µL of a suspension (containing approximately 45,000 astrocytes) was placed on the bottom of each filter. The petri dish was incubated at 37°C for 1 h, and 40 µL of fresh DMEM+S was added to the bottom of each filter every 15 min. The inserts were then transferred back to the plate and incubated at 37°C in 5% CO2 for 3 d. Then, 2 h before seeding the BBECs, the medium was replaced by DMEM+S supplemented with 125 µg/mL heparin and 2 h later, the cells were seeded onto the inserts (45,000 cells per filter). The plate was incubated at 37°C in 5% CO2 for 3 more days, after which the medium was replaced by DMEM+S supplemented with cyclic adenosine monophosphate (cAMP) and RO-20-1724, and kept at 37°C in 5% CO2. On day 8 of the co-culture, the transendothelial electrical resistance (TEER) was measured to determine whether the system was ready for transport studies. To validate the maturity of the model, permeability assays with lucifer yellow (LY) were performed in parallel as a marker of the integrity of the in vitro barrier. During the permeability assay, the samples were co-incubated with LY (20 µM) to assess the integrity of the cellular monolayer during the assay.

[4] = system: Wistar rats, transient MCAO model of focal brain ischemia; assay: Transient focal ischemia (MCAO), infarct volume by TTC staining; format: in vivo, rat; details: 30 mg/kg i.p. twice daily from 30 min after onset of ischemia, 3 days reperfusion; compared with vehicle
Description: as §1

5′-deoxy-5′-methylthioadenosine [MTA]
Fluoro Jade C stained cells in the hippocampal CA1 region [1]: 110±20 cells/mm | protection against OGD (cell death, LDH release) ([2]; IAA 20 and 50 µM, MTA 10 µM or 100 µM, APV 100 µM): significant | protection against OGD (cell death, LDH release) ([2]; supramaximal dose of MTA, 1 mM): neither protective nor did it lead to greater damage than OGD itself | Pe x 10^−6 (cm/s) [3]: 4.5 x 10^−6 cm/s | effective permeability coefficient (Pe) [3]: 4.5 ×10⁻⁶ cm/s | volume of the infarct area [4]: did not show any reduction
